Patent US20250122183A1 (Pfizer Inc., priority 2023, published 2025)

Key:
Assay type in all cases: biochemical
[1] = target: KAT5 Full length enzyme (Homo sapiens (Human), UniProt Q92993); assay: KAT5 assay (SAMDI-MS acetylation of H4 1-21 peptide); settings: Morrison equation fit; replicate number in parentheses; read-out: KAT5 Ki (nM) (replicate number)
[2] = target: KAT6A Full length enzyme (Homo sapiens (Human), UniProt Q92794); assay: KAT6A assay (SAMDI-MS acetylation of H3 1-21 peptide); settings: Morrison equation fit; replicate number in parentheses; read-out: KAT6A Ki (nM) (replicate number)
Chain of KAT6A Full length enzyme (Q92794 other isoform, or with tags, fused parts or gaps): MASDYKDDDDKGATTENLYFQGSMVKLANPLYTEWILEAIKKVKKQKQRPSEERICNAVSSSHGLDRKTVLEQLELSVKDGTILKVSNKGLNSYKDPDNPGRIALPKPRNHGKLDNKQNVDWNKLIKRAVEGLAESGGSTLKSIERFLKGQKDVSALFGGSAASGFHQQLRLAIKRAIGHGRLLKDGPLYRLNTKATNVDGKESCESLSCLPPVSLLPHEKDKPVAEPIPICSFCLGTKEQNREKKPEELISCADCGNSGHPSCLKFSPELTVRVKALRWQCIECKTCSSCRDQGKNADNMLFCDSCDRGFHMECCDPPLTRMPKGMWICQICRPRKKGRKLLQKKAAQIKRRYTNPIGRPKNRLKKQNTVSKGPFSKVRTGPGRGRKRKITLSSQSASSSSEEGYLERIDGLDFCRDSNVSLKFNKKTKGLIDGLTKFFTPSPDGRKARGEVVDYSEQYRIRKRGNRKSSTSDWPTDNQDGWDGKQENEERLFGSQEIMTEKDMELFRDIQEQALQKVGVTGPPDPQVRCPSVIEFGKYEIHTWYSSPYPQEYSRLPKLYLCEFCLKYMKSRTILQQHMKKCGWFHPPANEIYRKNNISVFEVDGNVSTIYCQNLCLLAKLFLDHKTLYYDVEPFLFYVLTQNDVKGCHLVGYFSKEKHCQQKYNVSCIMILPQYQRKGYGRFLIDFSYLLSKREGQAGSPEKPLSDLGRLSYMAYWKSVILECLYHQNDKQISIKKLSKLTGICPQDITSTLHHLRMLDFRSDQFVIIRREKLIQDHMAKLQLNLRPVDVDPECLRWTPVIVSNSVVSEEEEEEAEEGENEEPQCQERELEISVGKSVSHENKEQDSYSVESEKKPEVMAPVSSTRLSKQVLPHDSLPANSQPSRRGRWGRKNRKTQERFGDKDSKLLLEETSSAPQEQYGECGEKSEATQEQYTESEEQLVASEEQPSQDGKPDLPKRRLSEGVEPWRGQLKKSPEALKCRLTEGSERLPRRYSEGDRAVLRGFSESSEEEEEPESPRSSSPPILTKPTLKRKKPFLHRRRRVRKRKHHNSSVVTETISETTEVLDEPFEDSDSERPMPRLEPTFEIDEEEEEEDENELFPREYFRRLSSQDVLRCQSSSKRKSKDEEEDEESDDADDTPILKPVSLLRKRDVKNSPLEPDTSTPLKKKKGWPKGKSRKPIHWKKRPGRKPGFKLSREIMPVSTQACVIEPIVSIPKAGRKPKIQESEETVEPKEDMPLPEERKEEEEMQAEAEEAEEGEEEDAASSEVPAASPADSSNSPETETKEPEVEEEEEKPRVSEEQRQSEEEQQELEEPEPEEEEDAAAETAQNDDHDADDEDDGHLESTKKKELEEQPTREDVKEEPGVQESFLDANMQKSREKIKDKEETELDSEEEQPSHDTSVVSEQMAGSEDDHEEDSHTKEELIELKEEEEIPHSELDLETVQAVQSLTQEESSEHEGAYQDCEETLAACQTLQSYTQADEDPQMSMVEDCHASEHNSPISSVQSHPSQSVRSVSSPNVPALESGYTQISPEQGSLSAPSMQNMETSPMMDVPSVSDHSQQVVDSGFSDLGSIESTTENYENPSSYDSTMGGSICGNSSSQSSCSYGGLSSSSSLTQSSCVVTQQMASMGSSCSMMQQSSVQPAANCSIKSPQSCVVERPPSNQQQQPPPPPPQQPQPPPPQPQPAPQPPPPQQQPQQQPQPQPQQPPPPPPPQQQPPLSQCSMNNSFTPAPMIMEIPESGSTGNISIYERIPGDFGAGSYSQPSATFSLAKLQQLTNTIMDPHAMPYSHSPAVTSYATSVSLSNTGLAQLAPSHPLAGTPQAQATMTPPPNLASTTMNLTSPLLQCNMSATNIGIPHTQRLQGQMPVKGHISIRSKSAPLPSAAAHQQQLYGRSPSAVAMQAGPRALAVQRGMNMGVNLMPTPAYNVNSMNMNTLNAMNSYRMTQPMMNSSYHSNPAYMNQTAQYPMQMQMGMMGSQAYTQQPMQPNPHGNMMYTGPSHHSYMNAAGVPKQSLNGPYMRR

[3] = target: KAT7+JADE1+EAF6+ING5 4 protein complex (Homo sapiens (Human), UniProt O95251); assay: KAT7 JADE1 assay (SAMDI-MS acetylation of H3 1-21 peptide); settings: Morrison equation fit; replicate number in parentheses; read-out: KAT7 JADE1 Ki (nM) (replicate number)
[4] = target: KAT8 Full length enzyme (Homo sapiens (Human), UniProt Q9H7Z6); assay: KAT8 assay (SAMDI-MS acetylation of H3 1-21 peptide); settings: Morrison equation fit; replicate number in parentheses; read-out: KAT8 Ki (nM) (replicate number)
Chain of KAT8 Full length enzyme (Q9H7Z6 whole entry): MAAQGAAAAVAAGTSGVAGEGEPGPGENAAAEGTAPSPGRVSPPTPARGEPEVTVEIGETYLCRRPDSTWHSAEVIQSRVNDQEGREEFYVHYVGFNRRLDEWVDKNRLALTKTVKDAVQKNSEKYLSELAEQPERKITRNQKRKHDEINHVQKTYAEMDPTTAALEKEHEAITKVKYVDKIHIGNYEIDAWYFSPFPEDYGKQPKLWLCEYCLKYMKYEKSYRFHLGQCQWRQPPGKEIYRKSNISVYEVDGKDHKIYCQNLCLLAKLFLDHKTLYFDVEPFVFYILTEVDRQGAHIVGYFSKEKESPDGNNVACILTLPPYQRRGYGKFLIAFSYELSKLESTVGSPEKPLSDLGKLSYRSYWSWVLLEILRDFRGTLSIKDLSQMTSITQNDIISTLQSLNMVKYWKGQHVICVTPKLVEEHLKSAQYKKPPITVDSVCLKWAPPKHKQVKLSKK

[5] = target: KAT7+BRPF1+EAF6+ING5 4 protein complex (Homo sapiens (Human), UniProt O95251); assay: KAT7 BRPF1 assay (SAMDI-MS acetylation of H3 1-21 peptide); settings: Morrison equation fit; replicate number in parentheses

Chain of KAT5 Full length enzyme (Q92993 whole entry): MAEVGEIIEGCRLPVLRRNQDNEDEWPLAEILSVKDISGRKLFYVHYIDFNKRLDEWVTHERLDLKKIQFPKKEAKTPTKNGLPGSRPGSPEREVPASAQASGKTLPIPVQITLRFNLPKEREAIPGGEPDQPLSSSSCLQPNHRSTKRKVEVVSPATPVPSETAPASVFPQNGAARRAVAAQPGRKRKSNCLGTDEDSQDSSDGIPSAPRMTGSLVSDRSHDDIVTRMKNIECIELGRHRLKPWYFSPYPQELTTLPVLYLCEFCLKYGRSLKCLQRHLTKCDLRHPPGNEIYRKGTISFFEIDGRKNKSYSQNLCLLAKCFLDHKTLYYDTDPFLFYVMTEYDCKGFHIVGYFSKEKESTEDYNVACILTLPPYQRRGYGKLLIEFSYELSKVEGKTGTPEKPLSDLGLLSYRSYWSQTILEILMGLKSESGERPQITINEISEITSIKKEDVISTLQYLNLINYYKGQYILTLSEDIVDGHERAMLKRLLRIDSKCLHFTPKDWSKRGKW

With COc1cc2c(NS(=O)(=O)c3c(OC)cccc3OC3CC3)noc2cc1Nc1cc[nH]n1 [Example 34, 2-(cyclopropyloxy)-6-methoxy-N-{5-methoxy-6-[(1H-pyrazol-3-yl)amino]-1,2-benzoxazol-3-yl}benzene-1-sulfonamide] as the compound, how does the Ki [1] read?
Its Ki is 365 nM.

What about the Ki [2] of the same compound?
Its Ki is 0.4 nM.

And the Ki [3]?
The Ki was 51.8 nM.

What about the Ki [4] of the same compound?
The Ki was 1240 nM.

And the Ki [5]?
Its Ki is 11.2 nM.

Which results are given for COc1cccc(OC)c1S(=O)(=O)Nc1noc2cc(Nc3cc(C4CC4)n[nH]3)c(F)c(OC)c12 [Example 71, N-{6-[(3-cyclopropyl-1H-pyrazol-5-yl)amino]-5-fluoro-4-methoxy-1,2-benzoxazol-3-yl}-2,6-dimethoxybenzene-1-sulfonamide]?
Ki [1]: 591 nM; Ki [2]: 2.6 nM; Ki [3]: 20.9 nM; Ki [4]: 4050 nM; Ki [5]: 2.2 nM

For CCc1cc(Nc2cc3onc(NS(=O)(=O)c4c(OC)cccc4OC)c3c(OC)c2F)[nH]n1 [Example 72, N-{6-[(3-ethyl-1H-pyrazol-5-yl)amino]-5-fluoro-4-methoxy-1,2-benzoxazol-3-yl}-2,6-dimethoxybenzene-1-sulfonamide], which Ki [1] is on record?
The Ki was 1010 nM.

And the Ki [2]?
The Ki was 4.6 nM.

And the Ki [3]?
The Ki was 21.5 nM.

And the Ki [4]?
The Ki was over 6970 nM.

What about the Ki [5] of the same compound?
Its Ki is 1.1 nM.

Which Ki [1] does the source give for COc1cc2c(NS(=O)(=O)c3c(OC)cccc3OC)noc2cc1Nc1cc(Cc2ccccc2)n[nH]1 [Example 109, N-{6-[(3-benzyl-1H-pyrazol-5-yl)amino]-5-methoxy-1,2-benzoxazol-3-yl}-2,6-dimethoxybenzene-1-sulfonamide] here?
Its Ki is 326 nM.

And the Ki [2]?
Its Ki is 0.8 nM.

What about the Ki [3] of the same compound?
Its Ki is 18.5 nM.

And the Ki [4]?
The Ki was 2930 nM.

And the Ki [5]?
Its Ki is 5 nM.

For COc1cc2c(NS(=O)(=O)c3c(OC)cccc3OC)noc2cc1Nc1cc(CC(C)C)n[nH]1 [Example 114, 2,6-dimethoxy-N-(5-methoxy-6-{[3-(2-methylpropyl)-1H-pyrazol-5-yl]amino}-1,2-benzoxazol-3-yl)benzene-1-sulfonamide], which Ki [1] is on record?
Its Ki is 312 nM.

What about the Ki [2] of the same compound?
The Ki was 1.3 nM.

What about the Ki [3] of the same compound?
The Ki was 22 nM.

And the Ki [4]?
Its Ki is 3360 nM.

What about the Ki [5] of the same compound?
Its Ki is 2.1 nM.

With COc1cc2c(NS(=O)(=O)c3c(OC)cc(-c4cscn4)cc3OC)noc2cc1Nc1cc(C2CC2)n[nH]1 [Example 121, N-{6-[(3-cyclopropyl-1H-pyrazol-5-yl)amino]-5-methoxy-1,2-benzoxazol-3-yl}-2,6-dimethoxy-4-(1,3-thiazol-4-yl)benzene-1-sulfonamide] as the compound, how does the Ki [1] read?
The Ki was 106 nM.

And the Ki [2]?
The Ki was 0.7 nM.

And the Ki [3]?
The Ki was 8.9 nM.

What about the Ki [4] of the same compound?
The Ki was 1120 nM.

And the Ki [5]?
Its Ki is 2.1 nM.

COc1cc2c(NS(=O)(=O)c3c(OC)cc(-c4ccn(C)n4)cc3OC)noc2cc1Nc1cc(C2CC2)n[nH]1 [Example 122, N-{6-[(3-cyclopropyl-1H-pyrazol-5-yl)amino]-5-methoxy-1,2-benzoxazol-3-yl}-2,6-dimethoxy-4-(1-methyl-1H-pyrazol-3-yl)benzene-1-sulfonamide] was tested. Which Ki [1] did it give?
The Ki was 45.3 nM.

What about the Ki [2] of the same compound?
Its Ki is 0.3 nM.

What about the Ki [3] of the same compound?
Its Ki is 3 nM.

What about the Ki [4] of the same compound?
The Ki was 395 nM.

What about the Ki [5] of the same compound?
The Ki was 1.2 nM.

Which results are given for COc1cc2c(NS(=O)(=O)c3c(OC)cc(CN4CC[C@@H](F)C4)cc3OC)noc2cc1Nc1cc(C2CC2)n[nH]1 [Example 201, N-{6-[(3-cyclopropyl-1H-pyrazol-5-yl)amino]-5-methoxy-1,2-benzoxazol-3-yl}-4-{[(3R)-3-fluoropyrrolidin-1-yl]methyl}-2,6-dimethoxybenzene-1-sulfonamide]?
Ki [1]: 192 nM; Ki [2]: 0.6 nM; Ki [3]: 4.1 nM; Ki [4]: 2190 nM; Ki [5]: 3.4 nM

Which results are given for COc1cc2c(NS(=O)(=O)c3c(OC)cc(CN4CC(F)(F)C4)cc3OC)noc2cc1Nc1cc(C2CC2)n[nH]1 [Example 203, N-{6-[(3-cyclopropyl-1H-pyrazol-5-yl)amino]-5-methoxy-1,2-benzoxazol-3-yl}-4-[(3,3-difluoroazetidin-1-yl)methyl]-2,6-dimethoxybenzene-1-sulfonamide]?
Ki [1]: 21.7 nM; Ki [2]: 0.4 nM; Ki [3]: 4.3 nM; Ki [4]: 1220 nM; Ki [5]: 3 nM
